Laboratory results as given in patent publication US20180008573A1, “METHODS AND COMPOSITIONS FOR REDUCING DAMAGE ASSOCIATED WITH OXIDATIVE PHOSPHORYLATION” (USANA Health Sciences, Inc., priority 2016, published 2018).

Key:
Type in all cases: cell-based
[1] = biological target: T1, human PPARγ (Homo sapiens, UniProt P37231); experiment: PPARγ agonist reporter assay (Gal4 hybrid receptor, luciferase, CHO cells)
T1 construct: expressed in transfected cells; host or cells: CHO
T1 sequence (P37231 238-503 limits assumed): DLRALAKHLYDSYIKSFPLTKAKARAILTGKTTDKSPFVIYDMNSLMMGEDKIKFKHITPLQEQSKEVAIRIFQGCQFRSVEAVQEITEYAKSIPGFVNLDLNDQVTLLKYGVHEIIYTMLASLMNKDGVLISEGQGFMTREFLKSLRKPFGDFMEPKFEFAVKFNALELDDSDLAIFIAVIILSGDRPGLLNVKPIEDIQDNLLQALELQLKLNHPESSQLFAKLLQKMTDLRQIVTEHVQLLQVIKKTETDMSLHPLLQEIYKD

[2] = biological target: T2, Nrf2 (Homo sapiens, UniProt Q16236); experiment: Nrf2 agonist reporter assay (native receptor, ARE-luciferase, CV1 cells); set-up: comprising either the native receptor (Nrf2 and NF-κB); expressed in transfected cells; host or cells: CV1
T2 sequence (Q16236 1-605): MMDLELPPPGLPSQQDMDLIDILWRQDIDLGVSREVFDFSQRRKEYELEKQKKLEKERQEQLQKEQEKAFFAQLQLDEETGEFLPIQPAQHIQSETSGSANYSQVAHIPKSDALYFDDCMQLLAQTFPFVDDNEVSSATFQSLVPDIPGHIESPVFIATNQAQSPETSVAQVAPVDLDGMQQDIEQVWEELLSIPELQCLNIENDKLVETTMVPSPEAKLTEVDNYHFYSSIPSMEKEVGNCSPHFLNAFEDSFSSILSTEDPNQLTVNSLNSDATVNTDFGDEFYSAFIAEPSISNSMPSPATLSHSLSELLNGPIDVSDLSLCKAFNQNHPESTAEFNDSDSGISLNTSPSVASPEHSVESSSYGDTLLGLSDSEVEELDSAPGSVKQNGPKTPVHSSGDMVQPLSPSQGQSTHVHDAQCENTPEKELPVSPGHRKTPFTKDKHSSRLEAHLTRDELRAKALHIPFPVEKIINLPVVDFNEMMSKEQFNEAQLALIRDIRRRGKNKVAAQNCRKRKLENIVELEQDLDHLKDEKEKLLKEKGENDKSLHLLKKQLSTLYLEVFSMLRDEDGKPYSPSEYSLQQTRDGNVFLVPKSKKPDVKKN

[3] = biological target: T3, human PPARα (Homo sapiens, UniProt Q07869); experiment: PPARα agonist reporter assay (Gal4 hybrid receptor, luciferase, CHO cells)
T3 construct: expressed in transfected cells; host or cells: CHO
T3 sequence (Q07869 239-466 limits assumed): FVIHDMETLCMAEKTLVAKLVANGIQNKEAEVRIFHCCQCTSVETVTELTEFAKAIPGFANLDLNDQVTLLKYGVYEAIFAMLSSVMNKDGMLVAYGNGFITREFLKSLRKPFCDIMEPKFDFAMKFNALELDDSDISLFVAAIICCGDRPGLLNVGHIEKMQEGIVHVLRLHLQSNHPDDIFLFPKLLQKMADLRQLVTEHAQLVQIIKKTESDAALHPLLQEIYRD

PPARγ Fold-Activation ([1]; 1.42 μg/ml active ingredient): 1.1 fold
PPARγ Fold-Activation ([1]; 4.25 μg/ml active ingredient): 1.1 fold
PPARγ Fold-Activation ([1]; 12.7 μg/ml active ingredient): 1.3 fold
PPARγ Fold-Activation ([1]; 38.23 μg/ml active ingredient): 1.4 fold
PPARγ Fold-Activation ([1]; 114.70 μg/ml active ingredient): 3.4 fold
agonist activity against human PPARγ ([1]; at the concentrations tested): very low-level agonist activity
induction concentration (PPARγ) ([1]; in the mixture): 1.22 µg/mL
induction concentration (PPARγ) ([1]; used alone): 114.8 µg/mL
Nrf2 Fold-Activation ([2]; 1.42 μg/ml active ingredient): 1.4 fold
Nrf2 Fold-Activation ([2]; 4.25 μg/ml active ingredient): 1.4 fold
Nrf2 Fold-Activation ([2]; 12.7 μg/ml active ingredient): 1.5 fold
Nrf2 Fold-Activation ([2]; 38.23 μg/ml active ingredient): 1.5 fold
Nrf2 Fold-Activation ([2]; 114.70 μg/ml active ingredient): 2.4 fold
agonist activity against human Nrf2 ([2]; at the concentrations tested): very low-level agonist activity
PPARα Fold-Activation ([3]; 1.42 μg/ml active ingredient): 1.4 fold
PPARα Fold-Activation ([3]; 4.25 μg/ml active ingredient): 1.3 fold
PPARα Fold-Activation ([3]; 12.7 μg/ml active ingredient): 1.2 fold
PPARα Fold-Activation ([3]; 38.23 μg/ml active ingredient): 1.5 fold
PPARα Fold-Activation ([3]; 114.70 μg/ml active ingredient): 2.3 fold
agonist activity against human PPARα ([3]; at the concentrations tested): very low-level agonist activity
SMILES: O=C(O)CCCCC1CCSS1 (racemic) [Alpha lipoic acid, alpha lipoic acid]
